The results in this text go back to ChEMBL document CHEMBL6182856, “Novel one-/two-photon excited carbazole/quinolinium photosensitizers manifest nanomolar and hypoxia-resistant tumor photodynamic therapy by accelerating apoptosis, ferroptosis, and autophagy” (Eur J Med Chem, 2025).

A short description of data set [1]: Selectivity index, ratio of IC50 for cytotoxicity against human HFL1 cells measured under normoxia conditions to IC50 for phototoxicity against human A549 cells measured under normoxia conditions and after one-photon excitation upon irradiation with light at 520 nm, 200 mW/cm2 for 10 mins. The format is toxicity, cell-based. The conditions noted are these: HFL1 cells versus A549 cells, read-out: Ratio IC50.

In data set [2] the test system is A549. Kind of data set: Induction of apoptosis in human A549 cells assessed as late apoptotic cells measured under dark conditions by AnnexinV-FITC/PI staining based flow cytometric analysis (reference value: 0.17%). It counts as functional.
The test system of data set [3] is A549. Kind of data set: Induction of apoptosis in human A549 cells assessed as viable cells measured upon light irradiation by AnnexinV-FITC/PI staining based flow cytometric analysis (reference value: 98.4%). It counts as functional. (A flow cytometer gives signals particle by particle.)
The test system of data set [4] is A549. Kind of data set: Induction of ferroptosis in human A549 cells assessed as increase in lipid peroxidation by measuring increase in green fluorescence of the oxidized state measured upon irradiation by BODIPY 581/591C11 probe based confocal imaging analysis. It counts as functional, cell-based.
Data set [5] relates to A549. Nature of the data set: Induction of autophagy in human A549 cells assessed as increase in Beclin-I expression measured upon light irradiation by western blot analysis relative to control. The format is functional. For orientation: Immunoblotting shows a protein as a band on a membrane.

The source made the active and inactive calls. The calls are words filed in the database; no cut-off is given here.

For `CCn1c2ccc(/C=C/c3cc[n+](C)c4ccccc34)cc2c2cc(N(c3ccccc3)c3ccccc3)ccc21.[I-]`, the selectivity ratio at 10 min in data set [1] was 330. The figures for the Activity in data set [2] and in data set [3] were 30.7% and 7.29%, respectively. Besides, in data set [4], the result was Active. Further, the “fold change (FC)” value in data set [5] is 2.
